Test results reported in US4468469A, “Substituted phenylacetic acids and salts as TBP blocking agents in iodothyronine immunoassays” (Miles Laboratories, Inc., priority 1982, dated 1984).

Assay: Fluorescence and fluorescence quenching studies (SLFIA conditions)
Conditions: 10 mM fenclofenac; excitation 400 nm, emission 450 nm, 50 mM Bicine buffer pH 8.3
Experimental: Fluorescence measurements were conducted in 50 mM Bicine buffer (N,N-bis-(2-hydroxyethyl)glycine, Calbiochem-Behring, LaJolla, Calif., USA), pH 8.3, using an Aminco Bowman Fluorometer (American Instruments, Silver Springs, Md., USA), excitation set at 400 nm and emission at 450 nm, which are the fluorescence conditions for the β-galactosyl-umbelliferone enzyme substrate-labeled fluorescent immunoassay (SLFIA) described in U.S. Pat. No. 4,279,992.
Quenching studies were performed by measuring the fluorescence of a 1.3 μM solution of 2-[7-hydroxy-3-carboxamidocoumarin]ethanol (U.S. Pat. No. 4,273,715) in the presence of various levels of fenclofenac. The ratios of observed fluorescence (F) to fluorescence in the absence of fenclofenac (Fo) versus fenclofenac concentration were calculated and are presented in Table 6.

O=C(O)Cc1ccccc1Oc1ccc(Cl)cc1Cl [Fenclofenac, 2-(2,4-dichlorophenoxy)phenylacetic acid]
own fluorescence: did not exhibit any fluorescence
